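Cells were grown in 96-well plates and exposed to each compound for 48 hours at five concentrations; endpoints were interpolated linearly between bracketing concentrations, or set to the highest concentration if not reached. GI50: concentration for 50% inhibition of growth. Definition used: TGI = concentration required for complete inhibition of growth.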
Tests used:
Test in all cases: growth of human tumour cells (NCI), 48 h
[1] = system: HOP-62 NSCLC
[2] = system: SK-MEL-5 melanoma
[3] = system: 786-0 renal
[4] = system: KM12 colon
[5] = system: NCI-H226 lung
[6] = system: SK-MEL-28 melanoma
[7] = system: NCI-H23 lung
[8] = system: PC-3 prostate
[9] = system: SF-539 CNS
[10] = system: OVCAR-3 ovarian
[11] = system: M14 melanoma
[12] = system: U251 CNS
[13] = system: UACC-257 melanoma
[14] = system: SR leukemia
[15] = system: SF-268 CNS
[16] = system: MDA-MB-231 breast
[17] = system: HCC-2998 colon
[18] = system: SK-MEL-2 melanoma
[19] = system: NCI-H522 lung
[20] = system: SNB-75 CNS
[21] = system: HOP-92 NSCLC
[22] = system: DU-145 prostate
[23] = system: SW-620 colon
[24] = system: UO-31 renal
[25] = system: OVCAR-4 ovarian
[26] = system: MCF7 breast
[27] = system: OVCAR-5 ovarian
[28] = system: IGROV1 ovarian
[29] = system: A498 renal

## O=C(Nc1ccc(I)cc1F)c1cc(-c2ccc(F)cc2F)ccc1O
[1]
  GI50: 1.97 µM
  TGI: 4.91 µM
[2]
  GI50: 1.72 µM
  TGI: 3.29 µM
[3]
  GI50: 3.06 µM
  TGI: 9.11 µM
[4]
  GI50: 2.78 µM
  TGI: 8.1 µM
[5]
  GI50: 2.21 µM
  TGI: 6.3 µM
[6]
  GI50: 3.76 µM
  TGI: > 100 µM
[7]
  GI50: 2.14 µM
  TGI: 6.04 µM
[8]
  GI50: 3.09 µM
  TGI: > 100 µM
[9]
  GI50: 3.2 µM
  TGI: 11.6 µM
[10]
  GI50: 3.04 µM
  TGI: 9.16 µM
[11]
  GI50: 2.05 µM
  TGI: 5.48 µM
[12]
  GI50: 2.31 µM
  TGI: 5.94 µM
[13]
  GI50: 2.41 µM
  TGI: 7.15 µM
[14]
  GI50: 2.49 µM
  TGI: 8.71 µM
[15]
  GI50: 3.1 µM
  TGI: > 100 µM
[16]
  GI50: 1.88 µM
  TGI: 4.31 µM
[17]
  GI50: 3.12 µM
  TGI: 26.5 µM
[18]
  GI50: 1.79 µM
  TGI: 4.16 µM
[19]
  GI50: 2.71 µM
  TGI: 8.62 µM
[20]
  GI50: 1.49 µM
  TGI: 3.92 µM
[21]
  GI50: 2.42 µM
  TGI: 5.93 µM
[22]
  GI50: 3.68 µM
  TGI: > 100 µM
[23]
  GI50: 3.31 µM
  TGI: 13.6 µM
[24]
  GI50: 2.44 µM
  TGI: 9.57 µM
[25]
  GI50: 3.16 µM
  TGI: 27.1 µM
[26]
  GI50: 2.7 µM
  TGI: 11 µM
[27]
  GI50: 6.63 µM
  TGI: > 100 µM
[28]
  GI50: 4.65 µM
  TGI: > 100 µM
[29]
  GI50: 2.54 µM
